Experimental data published in US7074789B2, “Kinase inhibitors” (Amgen Inc., priority 1999, dated 2006).

How the values were obtained:
Type in all cases: biochemical
[1] = target: T1, ErbB4 (Homo sapiens, UniProt Q15303); assay: Kinase inhibition assay (33P transfer), ErbB4; details: read-out: ErbB4-1
T1 construct: Kinases are expressed as either kinase domains or full length constructs; made in house

[2] = target: T2, Lck (Homo sapiens, UniProt P06239); assay: Kinase inhibition assay (33P transfer), Lck; details: Table 3; read-out: Lck-1
T2 construct: Kinases are expressed as either kinase domains or full length constructs; made in house
Summary of the method: (§1)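 Recombinant kinase-domain or full-length fusion proteins (GST or His tag) served as enzyme. Substrate poly(Glu,Tyr) 4:1 or poly(Arg,Ser) 3:1 was bound to the plate; transferred 33P was read by liquid scintillation following acid washing.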

[3] = target: T3, Itk (Homo sapiens, UniProt Q08881); assay: Kinase inhibition assay (33P transfer), Itk; details: Table 3; read-out: Itk-1
T3 construct: Kinases are expressed as either kinase domains or full length constructs; made in house
T3 sequence (Q08881 1-620): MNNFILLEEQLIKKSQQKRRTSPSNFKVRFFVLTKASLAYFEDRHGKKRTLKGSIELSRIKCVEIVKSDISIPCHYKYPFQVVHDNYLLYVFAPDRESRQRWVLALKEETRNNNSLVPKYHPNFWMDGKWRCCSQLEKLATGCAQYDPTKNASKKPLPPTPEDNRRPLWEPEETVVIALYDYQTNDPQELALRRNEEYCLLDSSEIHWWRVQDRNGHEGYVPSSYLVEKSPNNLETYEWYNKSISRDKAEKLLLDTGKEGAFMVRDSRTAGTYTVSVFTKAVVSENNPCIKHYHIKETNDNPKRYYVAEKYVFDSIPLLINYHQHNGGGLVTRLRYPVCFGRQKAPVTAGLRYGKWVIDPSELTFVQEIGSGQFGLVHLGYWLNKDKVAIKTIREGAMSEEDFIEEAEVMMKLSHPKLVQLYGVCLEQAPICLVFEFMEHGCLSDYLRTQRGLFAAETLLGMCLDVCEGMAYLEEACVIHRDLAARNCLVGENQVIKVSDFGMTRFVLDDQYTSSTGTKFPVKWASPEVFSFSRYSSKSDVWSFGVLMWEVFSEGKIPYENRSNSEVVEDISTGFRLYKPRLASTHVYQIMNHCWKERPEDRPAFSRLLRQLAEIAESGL
Summary of the method: (§2)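 Radiometric format: recombinant tagged kinase (catalytic domain or whole protein, sometimes combined with regulatory polypeptides) phosphorylates immobilised poly(Glu,Tyr) 4:1 or poly(Arg,Ser) 3:1 using [33P]ATP. Wells are washed in 0.5% phosphoric acid, then counted. IC50 is taken where substrate labelling falls by half.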

[4] = target: T4, AKT (Homo sapiens, UniProt Q9Y243); assay: Kinase inhibition assay (33P transfer), AKT; details: Table 2, kinase inhibition class; read-out: AKT3-1
T4 construct: Kinases are expressed as either kinase domains or full length constructs; made in house
Summary of the method: as §1

[5] = target: T5, Tek (Homo sapiens, UniProt Q02763); assay: Kinase inhibition assay (33P transfer), Tek; details: read-out: Tek-1
T5 construct: Kinases are expressed as either kinase domains or full length constructs; made in house
Summary of the method: as §2

[6] = target: T6, EPHB4 (Homo sapiens, UniProt P54760); assay: Kinase inhibition assay (33P transfer), EPHB4; details: read-out: EPHB4-1
T6 construct: Kinases are expressed as either kinase domains or full length constructs; made in house
T6 sequence (P54760 16-987): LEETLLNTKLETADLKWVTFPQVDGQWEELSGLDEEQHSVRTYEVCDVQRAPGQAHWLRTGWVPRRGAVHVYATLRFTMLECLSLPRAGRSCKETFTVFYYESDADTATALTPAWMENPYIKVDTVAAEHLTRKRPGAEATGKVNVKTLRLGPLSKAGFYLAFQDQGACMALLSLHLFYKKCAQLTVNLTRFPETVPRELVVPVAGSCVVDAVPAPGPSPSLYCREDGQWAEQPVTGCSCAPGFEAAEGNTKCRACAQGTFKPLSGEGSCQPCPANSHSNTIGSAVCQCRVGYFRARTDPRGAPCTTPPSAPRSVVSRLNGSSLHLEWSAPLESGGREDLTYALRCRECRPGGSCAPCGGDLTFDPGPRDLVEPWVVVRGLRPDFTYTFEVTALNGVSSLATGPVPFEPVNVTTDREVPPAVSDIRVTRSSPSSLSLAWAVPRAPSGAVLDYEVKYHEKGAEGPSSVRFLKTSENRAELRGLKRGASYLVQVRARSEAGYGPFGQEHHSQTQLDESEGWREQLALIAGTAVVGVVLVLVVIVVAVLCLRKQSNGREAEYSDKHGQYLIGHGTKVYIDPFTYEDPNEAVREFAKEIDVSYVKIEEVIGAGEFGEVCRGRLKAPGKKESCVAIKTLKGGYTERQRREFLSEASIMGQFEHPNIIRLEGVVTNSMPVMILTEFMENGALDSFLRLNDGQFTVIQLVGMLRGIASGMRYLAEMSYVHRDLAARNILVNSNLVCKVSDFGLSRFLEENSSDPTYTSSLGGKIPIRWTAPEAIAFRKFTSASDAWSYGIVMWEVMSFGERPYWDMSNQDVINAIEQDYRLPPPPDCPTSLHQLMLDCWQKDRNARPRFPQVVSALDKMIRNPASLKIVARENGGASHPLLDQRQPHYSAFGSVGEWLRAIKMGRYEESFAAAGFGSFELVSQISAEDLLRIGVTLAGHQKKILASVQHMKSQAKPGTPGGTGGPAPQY

[7] = target: T7, Kdr (Homo sapiens, UniProt P35968); assay: Kinase inhibition assay (33P transfer), Kdr; details: Table 3; read-out: KDR-1
T7 construct: Kinases are expressed as either kinase domains or full length constructs; made in house
Summary of the method: as §1

[8] = target: T8, EGFR (Homo sapiens, UniProt P00533); assay: Kinase inhibition assay (33P transfer), EGFR; details: Table 2, kinase inhibition class; read-out: EGFR-1
T8 construct: Kinases are expressed as either kinase domains or full length constructs; made in house
Summary of the method: as §2

[9] = target: T9, Zap-70 (Homo sapiens, UniProt P43403); assay: Kinase inhibition assay (33P transfer), Zap-70; details: Table 3; read-out: Zap-1
T9 construct: Kinases are expressed as either kinase domains or full length constructs; made in house
T9 sequence (P43403 1-619): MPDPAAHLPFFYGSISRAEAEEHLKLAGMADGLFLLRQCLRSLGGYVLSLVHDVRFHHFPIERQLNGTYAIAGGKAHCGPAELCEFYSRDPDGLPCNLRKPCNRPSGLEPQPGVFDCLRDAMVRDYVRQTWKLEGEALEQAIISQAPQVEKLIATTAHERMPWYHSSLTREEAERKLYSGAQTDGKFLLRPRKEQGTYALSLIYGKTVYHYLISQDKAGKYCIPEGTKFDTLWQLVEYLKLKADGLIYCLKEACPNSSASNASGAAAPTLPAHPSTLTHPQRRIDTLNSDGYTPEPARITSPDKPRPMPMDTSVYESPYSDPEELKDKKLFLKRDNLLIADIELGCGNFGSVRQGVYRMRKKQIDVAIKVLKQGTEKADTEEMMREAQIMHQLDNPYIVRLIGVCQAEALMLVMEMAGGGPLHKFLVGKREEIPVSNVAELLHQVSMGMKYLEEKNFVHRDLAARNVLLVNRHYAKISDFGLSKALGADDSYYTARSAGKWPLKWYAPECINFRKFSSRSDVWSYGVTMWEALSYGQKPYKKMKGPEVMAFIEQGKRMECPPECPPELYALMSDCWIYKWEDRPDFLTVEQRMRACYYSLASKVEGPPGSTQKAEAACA
Summary of the method: as §1

[10] = target: T10, IGFR-1 (Homo sapiens, UniProt P08069); assay: Kinase inhibition assay (33P transfer), IGFR-1; details: Table 2, kinase inhibition class
T10 construct: Kinases are expressed as either kinase domains or full length constructs; made in house

[11] = target: T11, c-Met (Homo sapiens, UniProt P08581); assay: Kinase inhibition assay (33P transfer), c-Met; details: Table 2, kinase inhibition class; read-out: Met-1
T11 construct: Kinases are expressed as either kinase domains or full length constructs; made in house
Summary of the method: as §2

T2 sequence (P06239 whole entry, species assumed, the tested form may be a part): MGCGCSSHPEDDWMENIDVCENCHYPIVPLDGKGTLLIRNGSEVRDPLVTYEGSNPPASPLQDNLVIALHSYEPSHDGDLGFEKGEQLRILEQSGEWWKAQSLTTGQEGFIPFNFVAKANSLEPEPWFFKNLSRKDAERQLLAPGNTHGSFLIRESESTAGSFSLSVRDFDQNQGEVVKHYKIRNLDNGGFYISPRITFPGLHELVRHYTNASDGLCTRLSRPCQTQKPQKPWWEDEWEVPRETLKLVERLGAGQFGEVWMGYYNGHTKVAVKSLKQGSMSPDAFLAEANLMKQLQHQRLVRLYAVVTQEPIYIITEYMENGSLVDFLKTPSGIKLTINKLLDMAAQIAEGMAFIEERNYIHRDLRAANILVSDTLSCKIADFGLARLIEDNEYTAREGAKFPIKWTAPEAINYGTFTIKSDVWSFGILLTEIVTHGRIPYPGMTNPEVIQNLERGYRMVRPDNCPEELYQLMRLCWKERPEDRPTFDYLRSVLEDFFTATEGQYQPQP
T7 sequence (P35968 20-1356, species assumed): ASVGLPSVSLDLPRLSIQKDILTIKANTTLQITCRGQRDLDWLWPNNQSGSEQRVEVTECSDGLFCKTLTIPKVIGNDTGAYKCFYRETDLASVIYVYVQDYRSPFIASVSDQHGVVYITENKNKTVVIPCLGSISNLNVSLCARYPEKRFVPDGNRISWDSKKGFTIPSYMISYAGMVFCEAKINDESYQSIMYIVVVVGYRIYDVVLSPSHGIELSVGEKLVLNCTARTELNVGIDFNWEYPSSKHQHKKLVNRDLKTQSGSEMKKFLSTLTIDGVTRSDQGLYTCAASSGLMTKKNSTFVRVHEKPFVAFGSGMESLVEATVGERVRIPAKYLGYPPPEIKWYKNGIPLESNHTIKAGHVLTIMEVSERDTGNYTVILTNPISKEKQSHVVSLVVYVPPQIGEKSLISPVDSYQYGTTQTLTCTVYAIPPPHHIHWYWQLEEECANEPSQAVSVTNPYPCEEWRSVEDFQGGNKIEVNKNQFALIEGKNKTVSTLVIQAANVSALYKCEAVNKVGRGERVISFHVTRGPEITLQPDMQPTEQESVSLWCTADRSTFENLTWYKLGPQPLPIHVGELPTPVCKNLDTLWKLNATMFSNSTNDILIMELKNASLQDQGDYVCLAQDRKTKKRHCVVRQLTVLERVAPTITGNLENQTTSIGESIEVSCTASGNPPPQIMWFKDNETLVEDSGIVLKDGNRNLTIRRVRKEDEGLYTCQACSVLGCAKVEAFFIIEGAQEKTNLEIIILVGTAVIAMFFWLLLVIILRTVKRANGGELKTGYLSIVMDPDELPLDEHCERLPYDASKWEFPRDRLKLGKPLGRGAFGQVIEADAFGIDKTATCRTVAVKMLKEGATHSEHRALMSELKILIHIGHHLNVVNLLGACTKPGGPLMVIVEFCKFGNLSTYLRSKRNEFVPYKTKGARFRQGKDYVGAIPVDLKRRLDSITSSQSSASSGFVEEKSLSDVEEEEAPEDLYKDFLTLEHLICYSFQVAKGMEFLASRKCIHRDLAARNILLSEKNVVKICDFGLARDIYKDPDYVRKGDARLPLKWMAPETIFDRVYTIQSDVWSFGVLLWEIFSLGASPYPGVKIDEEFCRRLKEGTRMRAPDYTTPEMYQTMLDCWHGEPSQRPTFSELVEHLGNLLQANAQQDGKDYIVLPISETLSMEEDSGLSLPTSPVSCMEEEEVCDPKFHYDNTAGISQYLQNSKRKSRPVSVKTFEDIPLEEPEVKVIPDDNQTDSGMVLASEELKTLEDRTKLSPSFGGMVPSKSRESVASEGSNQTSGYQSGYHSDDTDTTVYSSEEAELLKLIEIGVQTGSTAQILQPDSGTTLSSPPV
T8 sequence (P00533 25-1210, species assumed): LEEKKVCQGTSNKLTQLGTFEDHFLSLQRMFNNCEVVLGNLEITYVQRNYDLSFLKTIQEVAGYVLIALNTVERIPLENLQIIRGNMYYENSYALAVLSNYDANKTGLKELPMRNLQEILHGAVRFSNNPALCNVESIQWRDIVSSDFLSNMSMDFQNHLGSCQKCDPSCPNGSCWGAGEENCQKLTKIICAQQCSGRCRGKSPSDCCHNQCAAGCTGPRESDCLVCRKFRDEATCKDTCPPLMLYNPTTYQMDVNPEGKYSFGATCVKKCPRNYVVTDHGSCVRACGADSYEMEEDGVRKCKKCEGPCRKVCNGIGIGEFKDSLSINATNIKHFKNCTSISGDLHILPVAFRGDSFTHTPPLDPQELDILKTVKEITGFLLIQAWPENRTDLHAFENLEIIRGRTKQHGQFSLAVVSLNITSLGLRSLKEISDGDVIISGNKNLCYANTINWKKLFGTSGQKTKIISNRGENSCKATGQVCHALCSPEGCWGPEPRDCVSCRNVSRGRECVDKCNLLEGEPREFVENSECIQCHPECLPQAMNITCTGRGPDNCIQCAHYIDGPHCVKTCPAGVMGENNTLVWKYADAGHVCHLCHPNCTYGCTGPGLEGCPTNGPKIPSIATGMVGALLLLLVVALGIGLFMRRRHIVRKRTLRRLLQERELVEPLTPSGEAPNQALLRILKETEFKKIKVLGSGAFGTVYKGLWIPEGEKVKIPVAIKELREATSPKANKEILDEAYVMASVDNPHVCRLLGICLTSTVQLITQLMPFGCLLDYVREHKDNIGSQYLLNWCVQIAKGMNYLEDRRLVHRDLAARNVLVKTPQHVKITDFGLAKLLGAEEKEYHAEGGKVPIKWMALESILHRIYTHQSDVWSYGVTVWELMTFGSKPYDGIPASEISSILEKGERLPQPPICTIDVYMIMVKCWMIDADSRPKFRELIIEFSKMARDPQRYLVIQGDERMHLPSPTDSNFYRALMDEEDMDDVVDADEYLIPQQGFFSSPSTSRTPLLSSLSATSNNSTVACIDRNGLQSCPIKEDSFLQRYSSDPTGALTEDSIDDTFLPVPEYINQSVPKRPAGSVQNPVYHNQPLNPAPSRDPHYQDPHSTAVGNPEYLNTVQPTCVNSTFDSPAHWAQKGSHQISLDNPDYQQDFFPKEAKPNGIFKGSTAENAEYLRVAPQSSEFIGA
T1 sequence (Q15303 26-1308, species assumed): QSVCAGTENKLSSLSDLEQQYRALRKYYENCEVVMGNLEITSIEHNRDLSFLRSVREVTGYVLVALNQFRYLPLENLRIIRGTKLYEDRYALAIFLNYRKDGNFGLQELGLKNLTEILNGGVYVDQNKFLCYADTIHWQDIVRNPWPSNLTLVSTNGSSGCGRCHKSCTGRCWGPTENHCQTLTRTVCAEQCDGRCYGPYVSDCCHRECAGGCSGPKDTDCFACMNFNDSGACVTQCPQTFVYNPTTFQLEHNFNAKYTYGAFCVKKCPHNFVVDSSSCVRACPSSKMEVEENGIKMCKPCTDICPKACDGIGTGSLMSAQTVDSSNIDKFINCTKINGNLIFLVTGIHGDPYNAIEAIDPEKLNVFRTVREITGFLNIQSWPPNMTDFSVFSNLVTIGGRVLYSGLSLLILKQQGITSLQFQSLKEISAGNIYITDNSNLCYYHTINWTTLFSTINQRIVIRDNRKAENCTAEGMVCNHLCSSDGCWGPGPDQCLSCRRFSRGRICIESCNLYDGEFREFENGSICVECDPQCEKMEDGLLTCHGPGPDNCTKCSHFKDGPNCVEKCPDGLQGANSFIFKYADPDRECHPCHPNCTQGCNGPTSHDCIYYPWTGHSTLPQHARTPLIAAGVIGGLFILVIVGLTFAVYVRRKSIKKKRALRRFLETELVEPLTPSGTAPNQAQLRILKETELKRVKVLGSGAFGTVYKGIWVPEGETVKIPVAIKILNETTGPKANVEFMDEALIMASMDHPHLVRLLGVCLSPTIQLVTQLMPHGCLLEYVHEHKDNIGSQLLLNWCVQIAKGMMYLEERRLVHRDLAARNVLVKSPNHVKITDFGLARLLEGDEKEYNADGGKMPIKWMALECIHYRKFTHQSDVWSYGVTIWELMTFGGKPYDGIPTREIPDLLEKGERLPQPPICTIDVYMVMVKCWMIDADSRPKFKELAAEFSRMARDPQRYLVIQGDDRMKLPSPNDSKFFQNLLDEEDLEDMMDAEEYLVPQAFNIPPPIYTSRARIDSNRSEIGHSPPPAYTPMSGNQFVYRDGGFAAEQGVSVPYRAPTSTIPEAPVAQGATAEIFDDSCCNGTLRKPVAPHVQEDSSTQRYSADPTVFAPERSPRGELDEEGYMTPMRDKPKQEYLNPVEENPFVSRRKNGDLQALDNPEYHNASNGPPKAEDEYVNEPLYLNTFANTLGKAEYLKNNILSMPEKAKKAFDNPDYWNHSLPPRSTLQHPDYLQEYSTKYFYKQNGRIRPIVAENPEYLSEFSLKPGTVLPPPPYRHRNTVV
T4 sequence (Q9Y243 whole entry, the tested form may be a part): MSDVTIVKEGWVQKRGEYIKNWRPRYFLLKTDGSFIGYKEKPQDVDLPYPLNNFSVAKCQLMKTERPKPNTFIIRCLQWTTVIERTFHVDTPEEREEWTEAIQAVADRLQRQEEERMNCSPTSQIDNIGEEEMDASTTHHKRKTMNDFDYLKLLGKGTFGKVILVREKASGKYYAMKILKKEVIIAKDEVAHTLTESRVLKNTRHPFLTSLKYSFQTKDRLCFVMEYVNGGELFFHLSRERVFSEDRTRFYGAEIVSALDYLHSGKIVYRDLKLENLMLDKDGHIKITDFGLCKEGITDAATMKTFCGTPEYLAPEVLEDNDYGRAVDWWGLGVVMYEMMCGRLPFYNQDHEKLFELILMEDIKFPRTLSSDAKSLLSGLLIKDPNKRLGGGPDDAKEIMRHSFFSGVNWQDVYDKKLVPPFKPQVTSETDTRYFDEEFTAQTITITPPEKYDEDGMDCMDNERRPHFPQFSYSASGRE

Row | Compound | IC50 [1] [µM] | IC50 [2] [µM] | IC50 [3] [µM] | IC50 [4] [µM] | IC50 [5] [µM] | IC50 [6] [µM] | IC50 [7] [µM] | IC50 [8] [µM] | IC50 [9] [µM] | IC50 [10] [µM] | IC50 [11] [µM]
1 | COc1cc(Nc2ncnc(N(CCC(C)C)c3ccc(Cl)cc3)n2)cc(OC)c1OC [Compound 51] | 5.24 to 7.64 | 0.873 to 5.24 | > 9.83 | > 9.83 | 0.873 to 5.24 | 0.873 to 5.24 | 0.873 to 5.24 | < 0.873 | > 9.83 | > 9.83 | 0.873 to 5.24
2 | CCOC(=O)Cc1ccc(Nc2ncnc(Nc3cc(OC)c(OC)c(OC)c3)n2)cc1 [Compound 62] | > 10.2 | 0.91 to 5.46 | > 10.2 | > 10.2 | > 10.2 | > 10.2 | 0.91 to 5.46 | < 0.91 | > 10.2 | 0.91 to 5.46 | 7.96 to 10.2
3 | COc1cc(Nc2ncnc(Nc3[nH]ncc3-c3ccccc3)n2)cc(OC)c1OC [Compound 369] |  | 5.72 to 8.34 | 8.34 to 10.7 | > 10.7 | > 10.7 | > 10.7 | > 10.7 | > 10.7 | > 10.7 | > 10.7 | > 10.7
4 | OCCCNc1cc(-c2ncnc(Nc3cccc(OC(F)(F)C(F)F)c3)n2)ccn1 [Compound 372] |  | > 10.3 | > 10.3 | > 10.3 | > 10.3 | > 10.3 | > 10.3 | > 10.3 | > 10.3 | > 10.3 | > 10.3
5 | COc1cc(Nc2ncnc(N(Cc3ccccc3)c3nc4ccccc4[nH]3)n2)cc(OC)c1OC [Compound 373] |  | > 9.31 | > 9.31 | > 9.31 | 0.827 to 4.96 | > 9.31 | 0.827 to 4.96 | 4.96 to 7.24 | > 9.31 | > 9.31 | > 9.31
6 | COc1cc(Nc2ncnc(-n3c(Nc4ccc(Cl)cc4)nc4ccccc43)n2)cc(OC)c1OC [Compound 375] |  | 4.76 to 6.95 | > 8.93 | > 8.93 | > 8.93 | > 8.93 | 0.794 to 4.76 | > 8.93 | > 8.93 | > 8.93 | > 8.93
7 | O=c1[nH]c2ccccc2n1-c1ncnc(Nc2ccc(-c3cnco3)cc2)n1 [Compound 379] |  | > 12.1 | > 12.1 | > 12.1 | > 12.1 | > 12.1 | 9.42 to 12.1 | > 12.1 | > 12.1 | > 12.1 | > 12.1
8 | COc1cc(Nc2ncnc(Nc3ccc(O)cc3C)n2)cc(OC)c1OC [Compound 927] |  | 6.26 to 9.13 | > 11.7 | > 11.7 | > 11.7 | > 11.7 | 1.04 to 6.26 | 6.26 to 9.13 | > 11.7 | > 11.7 | > 11.7
9 | COc1cc(Nc2ncnc(Nc3cccc(C(=O)O)c3)n2)cc(OC)c1OC [Compound 933] | 1.01 to 6.04 | 1.01 to 6.04 | > 11.3 | > 11.3 |  | 6.04 to 8.81 | 1.01 to 6.04 | < 1.01 | > 11.3 | 1.01 to 6.04 | > 11.3
10 | COc1cc(Nc2ncnc(Nc3ccc(C)c([N+](=O)[O-])c3)n2)cc(OC)c1OC [Compound 934] | > 10.9 | > 10.9 | > 10.9 | > 10.9 |  | 0.97 to 5.82 | 0.97 to 5.82 | 0.97 to 5.82 | > 10.9 | < 0.97 | > 10.9
11 | COc1ccc(Nc2ncnc(N(CC(=O)OC(C)(C)C)c3ccc(Cl)cc3)n2)cc1OC [Compound 973] |  | 5.09 to 7.42 | > 9.54 | > 9.54 | > 9.54 | 5.09 to 7.42 | > 9.54 | 0.848 to 5.09 | > 9.54 | > 9.54 | > 9.54
